Values after ≈ are worked out from the molar mass of the structure shown.
Columns and labels:
Type in all cases: functional
Acinetobacter baumannii [1] = assay: Antimicrobial activity against Acinetobacter baumannii 3208 expressing multiple-antibiotic resistance gene AbaR5 by […] 2 system
Acinetobacter baumannii [2] = assay: Antimicrobial activity against Acinetobacter baumannii 3208 expressing multiple-antibiotic resistance gene AbaR5 by […] 2 system in presence of beta-lactamase inhibitor Tazobactam
Acinetobacter baumannii [3] = assay: Antimicrobial activity against Acinetobacter baumannii 3208 expressing multiple-antibiotic resistance gene AbaR5 by […] 2 system in presence of beta-lactamase inhibitor clavulanic acid

CO/N=C(\C(=O)N[C@@H]1C(=O)N2C(C(=O)[O-])=C(C[N+]3(C)CCCC3)CS[C@H]12)c1csc(N)n1 [CEFEPIME]
MIC (Acinetobacter baumannii [1]): 16 µg/mL (≈ 33.3 µM)

C[C@@H](O)[C@H]1C(=O)N2C(C(=O)O)=C(S[C@@H]3CN[C@H](C(=O)N(C)C)C3)[C@H](C)[C@H]12 [MEROPENEM]
MIC (Acinetobacter baumannii [1]): 0.5 µg/mL (≈ 1.3 µM)

CCN1CCN(C(=O)N[C@@H](C(=O)N[C@@H]2C(=O)N3[C@@H]2SC(C)(C)[C@@H]3C(=O)O)c2ccccc2)C(=O)C1=O [PIPERACILLIN]
MIC (Acinetobacter baumannii [2]): ≤ 4 µg/mL

CC1(C)S[C@@H]2[C@H](NC(=O)[C@H](C(=O)O)c3ccsc3)C(=O)N2[C@H]1C(=O)O [TICARCILLIN]
MIC (Acinetobacter baumannii [3]): 32 µg/mL

GENTAMICIN
MIC (Acinetobacter baumannii [1]): > 16 µg/mL

NC[C@H]1O[C@H](O[C@H]2[C@H](O)[C@@H](O[C@H]3O[C@H](CO)[C@@H](O)[C@H](N)[C@H]3O)[C@H](N)C[C@@H]2N)[C@H](N)C[C@@H]1O [TOBRAMYCIN]
MIC (Acinetobacter baumannii [1]): ≤ 1 µg/mL

O=C(O)c1cn(C2CC2)c2cc(N3CCNCC3)c(F)cc2c1=O [CIPROFLOXACIN]
MIC (Acinetobacter baumannii [1]): ≥ 4 µg/mL
